Results from article PMC6862323, “Substitution of Arginine 120 in Human D-Amino Acid Oxidase Favors FAD-Binding and Nuclear Mistargeting” (Frontiers in Molecular Biosciences, 2019).

What was measured:
[1] = tested on: U87 glioblastoma cells; experiment: Confocal analysis of cellular distribution of EYFP-hDAAO variants in transiently transfected U87 cells; type: cell-based, human
Experimental: Human U87 glioblastoma cells (ATCC) were cultured in DMEM supplemented with 10% fetal bovine serum, 1 mM sodium pyruvate, 2 mM L-glutamine, 1% non-essential amino acids, 1% penicillin/streptomycin, and 1% amphotericin B (Euroclone), at 37°C in 5% CO2. The cells were transfected either with the pEYFP-hDAAO-C3 construct (for the expression of the wild-type enzyme downstream of the enhanced yellow fluorescent protein, EYFP) (Sacchi et al., [2008], [2011]), the pEYFP-hDAAO(R120L)-C3, or the pEYFP-hDAAO(R120E)-C3 expression vectors. The latter constructs were obtained by mutagenesis using the QuikChange Lightning Site-Directed Mutagenesis Kit (Agilent), and the following primers: 5′-[…]-3′ and 5′-[…]-3′ for the R120E substitution, and 5-[…]-3′ and 5′-[…]-3′ for the R120L substitution.
For transient transfection, 2 ×10^4 cells were seeded into eight-well chamber slides (Sarstedt). At 24 h after seeding, cells were transfected with 2 μg plasmid DNA using a 4:1 ratio of FuGENE transfection reagent (Promega) to DNA. Then, 12.5 μL of transfection mix was added to 500 μL medium per well. Protein expression levels were monitored by using a fluorescence microscope (Olympus IX51) equipped with a FITC filter and by Western blot analysis using an anti-hDAAO antibody (Davids Biotechnologie) (Sacchi et al., [2008], [2011]).
At 24, 48, and 72 h after transfection, cells were washed twice with PBS and fixed with ice-cold 4% p-formaldehyde and 4% sucrose for 10 min at room temperature. After fixation, cells were washed twice with PBS and blocked by incubation in PBS supplemented with 0.2% Triton X-100 and 4% horse serum for 30 min at room temperature. Peroxisomes were stained using rabbit polyclonal anti-PMP70 (peroxisomal membrane protein 70, Sigma), diluted 1:500 in PBS, 0.1% Triton X-100, and 4% horse serum overnight at 4°C; they were then washed twice in PBS and 1% horse serum and incubated for 1 h at room temperature (light protected) with goat anti-rabbit Dylight 550 secondary antibodies (Abcam) diluted 1:400 in PBS, 0.1% Triton X-100, and 1.5% horse serum. Cells were then extensively washed in PBS and nuclei were stained with DRAQ5™ (Thermo Scientific) and diluted 1:500 in PBS for 10 min at room temperature in the dark. Cells were washed three times with PBS and stored in PBS at 4°C until imaging.
Immunostained cells were imaged using an inverted laser scanning confocal microscope (TCS SP5, Leica Microsystems), equipped with a 63.0 ×1.25 NA plan apochromatic oil immersion objective. Confocal image stacks were acquired using the Leica TCS software with a sequential mode to avoid interference between each channel and without saturating any pixel. Cells in 10–15 non-magnified optical fields were analyzed for each condition (i.e., different EYFP-hDAAO expression constructs at different times after transfection). The fluorescence signal corresponding to the overexpressed EYFP-hDAAO variants was monitored by excitation at 514 nm (yellow channel); the peroxisomal and nuclear cellular compartments were imaged by excitation at 546 nm (red channel) and 647 nm (blue channel), respectively.
U87 glioblastoma cells were transiently transfected with a pEYFP-hDAAO-C3 plasmid encoding for EYFP-hDAAO chimeric proteins harboring R, E, or L at position 120 of the flavoenzyme. […] A similar amount of transfected cells (expressing EYFP-hDAAO protein) was obtained for all three constructs (Table 4). The percentage of cells showing a cytosolic, peroxisomal, and nuclear localization of the flavoenzyme was determined by comparing the yellow fluorescence signal of EYFP-hDAAO variants with those of the markers PMP-70 (for peroxisomes) and DRAQ5™ dye (for nuclei, Figure 5). The amount of cytosolic wild-type EYFP-hDAAO decreased with time after transfection (28% of the signal is cytosolic at 72 h vs. 94% at 24 h), as did the amount of nuclear signal (Table 4 and Figure 6). […]

[2] = set-up: method as in Molla et al. (2006) and Caldinelli et al. (2009); conditions: 28 mM D-alanine, pH 8.5, 25°C; ref Molla et al. (2006) and Caldinelli et al. (2009); cited from earlier work

Wild-type: recombinant wild-type human D-amino acid oxidase (His-tagged from E. coli; EYFP-tagged in U87 cells)
hDAAO cellular distribution: A, large cytosolic aggregates detected ([1]; 24 h after transfection): 18.7 % of transfected cells
hDAAO cellular distribution: C, cytosol ([1]; 24 h after transfection): 69.4 % of transfected cells
hDAAO cellular distribution: C/P, mixed, cytosol and peroxisomes ([1]; 24 h after transfection): 13.4 % of transfected cells
hDAAO cellular distribution: N, nucleus ([1]; 24 h after transfection): 14.4 % of transfected cells
hDAAO cellular distribution: P, peroxisomes ([1]; 24 h after transfection): 17.2 % of transfected cells
hDAAO cellular distribution: A, large cytosolic aggregates detected ([1]; 48 h after transfection): 15.4 % of transfected cells
hDAAO cellular distribution: C, cytosol ([1]; 48 h after transfection): 21.2 % of transfected cells
hDAAO cellular distribution: C/P, mixed, cytosol and peroxisomes ([1]; 48 h after transfection): 26.9 % of transfected cells
hDAAO cellular distribution: N, nucleus ([1]; 48 h after transfection): 9.6 % of transfected cells
hDAAO cellular distribution: P, peroxisomes ([1]; 48 h after transfection): 51.9 % of transfected cells
cytosolic signal ([1]; 72 h after transfection): 28%
hDAAO cellular distribution: A, large cytosolic aggregates detected ([1]; 72 h after transfection): 5.6 % of transfected cells
hDAAO cellular distribution: C, cytosol ([1]; 72 h after transfection): 10.4 % of transfected cells
hDAAO cellular distribution: C/P, mixed, cytosol and peroxisomes ([1]; 72 h after transfection): 18.4 % of transfected cells
hDAAO cellular distribution: N, nucleus ([1]; 72 h after transfection): 4.0 % of transfected cells
hDAAO cellular distribution: P, peroxisomes ([1]; 72 h after transfection): 71.2 % of transfected cells
Specific activity [2]: 12.0 U/mg protein
